Experiment: Adsorption on stent in plasma, fluorescence microscopy
Assay type: binding
Conditions: stent immersed in human plasma 37° C., 30 minutes, then 0.5 mM peptide or PEG-peptide conjugate solution 37° C.
Protocol: Next, in order to analyze the binding ability of the peptide of the present invention to a stent existing in plasma, whether or not the peptide of the present invention binds to a stent that has been allowed to come into contact with plasma was examined.
That is, a stent was immersed in human plasma (37° C., 30 minutes), and was then removed from the plasma. The stent was then immersed in each peptide solution (0.5 mM) and a PEG-peptide conjugate solution (0.5 mM) (37° C., 30 minutes). Thereafter, the stent was sufficiently rinsed with PBS, and was then observed under a fluorescence microscope.
FIG. 15 and FIG. 16 show the fluorescence microscopic images of the stents, and the observed fluorescence intensities are summarized in FIG. 17. The method of digitizing the fluorescence intensity is as described above.

binding to the surface of the stent after contact with human plasma: does not bind to a stent
Sequence: LTPHKHHKHLHA [YT07]

Source: US20210085807A1, “METAL-BINDING PEPTIDE AND USE THEREOF” (The University of Tokyo, priority 2018, published 2021)
